Results from patent publication US5684151A, “1-arylsulphonyl, arylcarbonyl and 1-arylphosphonyl-3-phenyl-1,4,5,6-tetrahydropyridazines” (priority 1995, dated 1997).
Read-outs that look alike come from different tables or passages of the source.

Experiments:
[1] = target: T1, progestin receptor from rabbit uterus (Oryctolagus cuniculus, UniProt P06186); experiment: Progestin receptor binding (3H-R5020 displacement); details: rabbit uterine cytosol, 4° C., 18 h, read-out: IC50: Binding affinity for the progestin receptor from rabbit uterus
T1 construct: Cytosolic progestin receptor were obtained by mixing rabbit uterine tissue with a Tris buffer; from tissue; host or cells: rabbit uterus cytosol
Summary of the method: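 Displacement of the radioligand 3H-R5020 was measured in cytosol from homogenized rabbit uterus (pH 7.4 Tris/EDTA/DTT/molybdate buffer), with compounds at 5% final DMSO and about 18 h at 4 °C. Charcoal removed free ligand, scintillation counting quantified bound ligand, and IC50 was the concentration displacing half.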

[2] = system: mouse (MC3T3-E1) and human (TE-85) osteoblast-line cells; assay type: cell-based
Summary of the method: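 Proliferation was read as ^3H-thymidine (0.4 μCi) uptake during a 4 h pulse, which started 20 h after compound addition. Before dosing, cells sat 24 h in 0.1% FBS. Values are % times control (100%).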

T1 sequence (P06186 whole entry): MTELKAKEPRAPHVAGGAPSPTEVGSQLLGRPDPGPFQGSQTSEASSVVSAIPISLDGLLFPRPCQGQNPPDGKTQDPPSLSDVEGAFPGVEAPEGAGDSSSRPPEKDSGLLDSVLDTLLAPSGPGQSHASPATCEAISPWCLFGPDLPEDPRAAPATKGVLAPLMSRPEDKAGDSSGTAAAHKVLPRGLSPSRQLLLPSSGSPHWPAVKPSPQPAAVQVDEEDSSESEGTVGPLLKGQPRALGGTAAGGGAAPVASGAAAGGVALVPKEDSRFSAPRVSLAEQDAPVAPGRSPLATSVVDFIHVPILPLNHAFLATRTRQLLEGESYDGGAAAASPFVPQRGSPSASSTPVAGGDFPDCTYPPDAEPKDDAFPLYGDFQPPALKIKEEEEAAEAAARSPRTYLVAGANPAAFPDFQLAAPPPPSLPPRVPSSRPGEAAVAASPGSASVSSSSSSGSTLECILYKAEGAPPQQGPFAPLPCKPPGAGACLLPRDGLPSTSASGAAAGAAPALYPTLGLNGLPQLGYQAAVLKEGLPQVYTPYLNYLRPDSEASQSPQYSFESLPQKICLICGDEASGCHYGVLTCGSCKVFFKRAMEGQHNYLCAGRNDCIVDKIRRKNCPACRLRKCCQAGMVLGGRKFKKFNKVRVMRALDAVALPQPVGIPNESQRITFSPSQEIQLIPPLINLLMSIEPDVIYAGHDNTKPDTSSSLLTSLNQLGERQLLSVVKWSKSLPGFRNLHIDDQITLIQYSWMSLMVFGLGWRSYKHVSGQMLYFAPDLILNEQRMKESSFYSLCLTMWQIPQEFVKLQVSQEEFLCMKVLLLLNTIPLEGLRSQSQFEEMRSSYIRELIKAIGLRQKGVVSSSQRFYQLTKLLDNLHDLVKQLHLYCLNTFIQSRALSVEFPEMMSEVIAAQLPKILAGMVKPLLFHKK

| SMILES | IC50 [1] | Osteoblast Cell Proliferation, 3H-thymidine incorporation vs control (100%) ([2]; 10^-6) | Osteoblast Cell Proliferation, 3H-thymidine incorporation vs control (100%) ([2]; 10^-7) | Osteoblast Cell Proliferation, 3H-thymidine incorporation vs control (100%) ([2]; 10^-8) | Osteoblast Cell Proliferation, 3H-thymidine incorporation vs control (100%) ([2]; 10^-9) | Osteoblast Cell Proliferation, 3H-thymidine incorporation vs control (100%) ([2]; 10^-10) |
| --- | --- | --- | --- | --- | --- | --- |
| O=S(=O)(c1cc(Cl)ccc1Cl)N1CCCC(c2ccc(F)cc2)=N1 [Compound 11] | 20 nM | 106% | 135% | 156% | 131% | 154% |
| O=S(=O)(c1ccc(Br)cc1)N1CCCC(c2ccc(Cl)cc2)=N1 [Compound 13] | 9 nM | 88% | 109% | 114% | 109% | 152% |
| O=[N+]([O-])c1cccc(S(=O)(=O)N2CCCC(c3ccc(Cl)cc3)=N2)c1 [Compound 14] | 7 nM | 96% | 109% | 118% | 136% | 139% |
| O=S(=O)(c1ccc2ccccc2c1)N1CCCC(c2ccc(F)cc2)=N1 [Compound 25] | 49 nM | 87% | 106% | 101% | 99% | 90% |
| O=S(=O)(c1ccc(F)cc1F)N1CCCC(c2ccc(Cl)cc2)=N1 [Compound 32] | 45 nM | 89% | 103% | 105% | 111% | 118% |
| O=S(=O)(c1cc(C(F)(F)F)cc(C(F)(F)F)c1)N1CCCC(c2ccc(Cl)cc2)=N1 [Compound 33] | 9 nM | 96% | 107% | 117% | 127% | 152% |
| O=[N+]([O-])c1ccc(S(=O)(=O)N2CCCC(c3ccc(Cl)c(Cl)c3)=N2)cc1 [Compound 38] | 5.29 nM | 76% | 73% | 54% | 49% | 37% |
| O=S(=O)(c1ccccc1)N1CCCC(c2ccc(Cl)c(Cl)c2)=N1 [Compound 43] | 3.3 nM | 92% | 92% | 99% | 98% | 85% |
| COC(=O)c1ccccc1S(=O)(=O)N1CCCC(c2ccc(Cl)c(Cl)c2)=N1 [Compound 47] | 20.1 nM | 109% | 112% | 113% | 115% | 123% |
| O=S(=O)(c1ccc2ccccc2c1)N1CCCC(c2ccccc2)=N1 [Compound 51] | 203 nM | 119% | 120% | 144% | 126% | 158% |
| COc1ccc(C2=NN(S(=O)(=O)c3ccc(Cl)cc3)CCC2)cc1 [Compound 63] | 118 nM | 101% | 103% | 99% | 77% | 97% |
| COc1ccc(C2=NN(S(=O)(=O)c3ccccc3)CCC2)cc1 [Compound 64] | 550 nM | 116% | 115% | 121% | 128% | 137% |
| COc1ccc(C2=NN(S(=O)(=O)c3ccc4ccccc4c3)CCC2)cc1 [Compound 65] | 57 nM | 90% | 98% | 94% | 88% | 80% |
| CCCCc1ccc(C2=NN(S(=O)(=O)c3ccc(I)cc3)CCC2)cc1 [Compound 71] | 10000 nM | 110% | 114% | 99% | 103% | 98% |
| CCCCc1ccc(C2=NN(S(=O)(=O)c3ccc4ccccc4c3)CCC2)cc1 [Compound 72] | 10000 nM | 113% | 119% | 129% | 120% | 123% |
| O=S(=O)(c1ccc(Cl)c(Cl)c1)N1CCCC(c2ccc(Cl)c(C(F)(F)F)c2)=N1 [Compound 81] | 16.5 nM | – | 110% | 119% | 119% | 128% |
| O=S(=O)(c1ccc(Cl)cc1)N1CCCC(c2ccc(-c3ccccc3)cc2)=N1 [Compound 84] | 1000 nM | 108% | 119% | 130% | 127% | 122% |
| O=S(=O)(c1ccc2ccccc2c1)N1CCCC(c2ccc(-c3ccccc3)cc2)=N1 [Compound 85] | 1000 nM | 99% | 80% | 76% | 54% | 48% |
| O=S(=O)(c1ccccc1)N1CCCC(c2ccc(-c3ccccc3)cc2)=N1 [Compound 86] | 228 nM | 100% | 114% | 94% | 103% | 101% |
| Cc1ccc(S(=O)(=O)N2CCCC(c3ccc4c(c3)CCCC4)=N2)cc1 [Compound 87] | 82.2 nM | 120% | 115% | 125% | 117% | 127% |
| O=S(=O)(c1ccc(Cl)cc1)N1CCCC(c2ccc3c(c2)CCCC3)=N1 [Compound 88] | 10.2 nM | 97% | 109% | 89% | 74% | 62% |
| O=S(=O)(c1cc(Cl)ccc1Cl)N1CCCC(c2ccc3c(c2)CCCC3)=N1 [Compound 89] | 21.6 nM | 115% | 97% | 113% | 106% | 98% |
| O=S(=O)(c1ccccc1)N1CCCC(c2ccc3c(c2)CCCC3)=N1 [Compound 90] | 71.7 nM | 90% | 95% | 68% | 68% | 42% |
